This assay deals with T1, CCK-A receptors in rat pancreatic membranes (Rattus norvegicus, UniProt P30551).
T1 construct: CCK-A receptors in rat pancreatic membranes; from tissue; host or cells: rat pancreas (membranes)
T1 sequence (P30551 1-444): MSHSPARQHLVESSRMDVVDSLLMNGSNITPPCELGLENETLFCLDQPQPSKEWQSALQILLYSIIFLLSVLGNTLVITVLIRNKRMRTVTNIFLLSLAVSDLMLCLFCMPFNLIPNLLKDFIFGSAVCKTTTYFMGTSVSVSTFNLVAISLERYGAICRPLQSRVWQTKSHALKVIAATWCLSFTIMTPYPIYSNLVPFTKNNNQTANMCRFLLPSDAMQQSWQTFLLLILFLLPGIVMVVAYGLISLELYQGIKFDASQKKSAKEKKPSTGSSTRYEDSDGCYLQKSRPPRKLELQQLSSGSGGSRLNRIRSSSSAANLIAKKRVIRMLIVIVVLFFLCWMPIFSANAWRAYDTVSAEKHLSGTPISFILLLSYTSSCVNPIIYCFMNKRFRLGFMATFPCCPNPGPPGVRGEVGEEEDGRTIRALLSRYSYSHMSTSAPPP
The experiment in a line: Test B: CCK-A binding. The following applies: against Bolton Hunter 125I-CCK-8 and 3H-L364718, read-out: binding constant (Ki) at CCK-A receptors. As to the method:
Evaluation of a test compound for its ability to bind to CCK-A receptors in rat pancreatic membranes is measured against the binding of Bolton Hunter^125 I-CCK-8 and ^3 H-L364718 to rat pancreas according to the procedures of Chang, Lotti, Chan and Kunkel (Molecular Pharmacology, 30:212-216, 1986).

Where a SMILES comes first, the peptide text is derived from it. [ ]: non-standard residue; d: D form. The star is where a group is joined. dNMeD = CN[C@H](CC(=O)O)C(=O)O; Nle = CCCC[C@H](N)C(=O)O; X1 = O=C(Cc1ccc(O)cc1)*

The term Ki denotes a measure of affinity in units of concentration, obtained from inhibition or displacement.

With `CCCC[C@H](NC(=O)Cc1ccc(O)cc1)C(=O)NCC(=O)N[C@@H](Cc1c[nH]c2ccccc12)C(=O)N[C@@H](CCCC)C(=O)N(C)[C@H](CC(=O)O)C(=O)N[C@@H](Cc1ccccc1)C(N)=O` [Example 49, Hpa-Ahx-Gly-Trp-Ahx-MeDAsp-Phe-NH2] (X1-[Nle]GW[Nle][dNMeD]F-NH2), the Ki came to 0.03 nM.

The values are drawn from US5502164A, “Peptide compounds having therapeutic activity” (priority 1992, dated 1996).
